Measurements: US9452997B2, “Piperidine and piperazine derivatives as autotaxin inhibitors” (Merck Patent GmbH, priority 2009, dated 2016)

biological target: T1, Recombinant autotaxin (Homo sapiens, UniProt Q13822); experiment: Autotaxin assay (Amplex Red, LPC substrate); format: biochemical; settings: % of control at 1E−05 (compound concentration); uninhibited control = 100%
T1 construct: made in house; host or cells: Hi5 insect cells (baculovirus)
Summary of the method: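 Recombinant autotaxin (Hi5 baculovirus, 16 ng) pre-incubated with compound 30 min at 22° C, then reacted with 75 μM egg LPC for 90 min at 37° C. Choline released is coupled to H2O2 and Amplex Red fluorescence (ex 485/em 612 nm). IC50 from ten 1:3 dilutions from 30 μM, duplicates, normalised to 500 μM C14 LPA.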

% CTRL (1E−05) [%] | Structure (SMILES)
89 | CS(=O)(=O)c1ccc(CCC(=O)N2CCC(N3CCN(C(=O)c4ccc5[nH]nnc5c4)CC3)CC2)cc1 [Compound 88, 1-{4-[4-(1H-Benzotriazole-5-carbonyl)-piperazin-1-yl]-piperidin-1-yl}-3-(4-methanesulfonyl-phenyl)-propan-1-one]
66 | O=C(c1cc(Cl)c(F)c(Cl)c1)N1CCC(N2CCN(C(=O)c3ccc4[nH]nnc4c3)CC2)CC1 [Compound 91, (1H-Benzotriazol-5-yl)-{4-[1-(3,5-dichloro-4-fluoro-benzoyl)-piperidin-4-yl]-piperazin-1-yl}-methanone]
77 | N#Cc1ccc(CCC(=O)N2CCC(N3CCN(C(=O)c4ccc5[nH]nnc5c4)CC3)CC2)cc1 [Compound 94, 4-(3-{4-[4-(1H-Benzotriazole-5-carbonyl)-piperazin-1-yl]-piperidin-1-yl}-3-oxo-propyl)-benzonitrile]

Structure (SMILES) | % CTRL (1E−05) [%]
O=C(Cc1ccc(C(F)(F)F)c(F)c1)N1CCN(C2CCN(C(=O)c3ccc4[nH]nnc4c3)CC2)CC1 [Compound 102, 1-{4-[1-(1H-Benzotriazole-5-carbonyl)-piperidin-4-yl]-piperazin-1-yl}-2-(3-fluoro-4-trifluoromethyl-phenyl)-ethanone] | 24

same assay, conditions: recombinant autotaxin, LPC substrate, Amplex Red detection; values given as upper bounds

IC50 [nM] | Structure (SMILES)
< 10000 | O=C(CCc1ccc(Cl)cc1Cl)N1CCC(N2CCN(C(=O)c3ccc4[nH]nnc4c3)CC2)CC1 [Compound 82, 1-{4-[4-(1H-Benzotriazole-5-carbonyl)-piperazin-1-yl]-piperidin-1-yl}-3-(2,4-dichloro-phenyl)-propan-1-one]
< 1000 | O=C(/C=C/c1ccc(Br)cc1F)N1CCC(N2CCN(C(=O)c3ccc4[nH]nnc4c3)CC2)CC1 [Compound 83, (E)-1-{4-[4-(1H-Benzotriazole-5-carbonyl)-piperazin-1-yl]-piperidin-1-yl}-3-(4-bromo-2-fluoro-phenyl)-propenone]
< 1000 | CC(C)c1ccc(CCC(=O)N2CCC(N3CCN(C(=O)c4ccc5[nH]nnc5c4)CC3)CC2)cc1 [Compound 84, 1-{4-[4-(1H-Benzotriazole-5-carbonyl)-piperazin-1-yl]-piperidin-1-yl}-3-(4-isopropyl-phenyl)-propan-1-one]
< 1000 | O=C(OCc1ccc(Cl)c(Cl)c1)N1CCC(N2CCN(C(=O)c3ccc4[nH]nnc4c3)CC2)CC1 [Compound 85, 4-[4-(1H-Benzotriazole-5-carbonyl)-piperazin-1-yl]-piperidine-1-carboxylic acid 3,4-dichloro-benzyl ester]
< 1000 | O=C(OCc1ccc(SC(F)(F)F)cc1)N1CCC(N2CCN(C(=O)c3ccc4[nH]nnc4c3)CC2)CC1 [Compound 86, 4-[4-(1H-Benzotriazole-5-carbonyl)-piperazin-1-yl]-piperidine-1-carboxylic acid 4-trifluoromethylsulfanyl-benzyl ester]
< 1000 | CC(C)c1ccc(COC(=O)N2CCC(N3CCN(C(=O)c4ccc5[nH]nnc5c4)CC3)CC2)cc1 [Compound 87, 4-[4-(1H-Benzotriazole-5-carbonyl)-piperazin-1-yl]-piperidine-1-carboxylic acid 4-isopropyl-benzyl ester]
< 30000 | N[C@@H](Cc1c[nH]cn1)C(=O)N1CCN(C2CCN(C(=O)OCc3ccc(C(F)(F)F)cc3)CC2)CC1 [Compound 89, 4-{4-[(S)-2-Amino-3-(1H-imidazol-4-yl)-propionyl]-piperazin-1-yl}-piperidine-1-carboxylic acid 4-trifluoromethyl-benzyl ester]
< 1000 | O=C(/C=C/c1cc(Cl)cc(Cl)c1)N1CCC(N2CCN(C(=O)c3ccc4[nH]nnc4c3)CC2)CC1 [Compound 90, (E)-1-{4-[4-(1H-Benzotriazole-5-carbonyl)-piperazin-1-yl]-piperidin-1-yl}-3-(3,5-dichloro-phenyl)-propenone]
< 1000 | O=C(OCc1ccc(C(F)(F)F)c(Cl)c1)N1CCC(N2CCN(C(=O)c3ccc4[nH]nnc4c3)CC2)CC1 [Compound 92, 4-[4-(1H-Benzotriazole-5-carbonyl)-piperazin-1-yl]-piperidine-1-carboxylic acid 3-chloro-4-trifluoromethyl-benzyl ester]
< 1000 | O=C(OCc1cc(Cl)c(F)c(Cl)c1)N1CCC(N2CCN(C(=O)c3ccc4[nH]nnc4c3)CC2)CC1 [Compound 93, 4-[4-(1H-Benzotriazole-5-carbonyl)-piperazin-1-yl]-piperidine-1-carboxylic acid 3,5-dichloro-4-fluoro-benzyl ester]
< 1000 | O=C(OCc1cc(Cl)cc(C(F)(F)F)c1)N1CCN(C2CCN(C(=O)c3ccc4[nH]nnc4c3)CC2)CC1 [Compound 95, 4-[1-(1H-Benzotriazole-5-carbonyl)-piperidin-4-yl]-piperazine-1-carboxylic acid 3-chloro-5-trifluoromethyl-benzyl ester]
< 1000 | O=C(OCc1ccc(C(F)(F)F)c(Cl)c1)N1CCN(C2CCN(C(=O)c3ccc4[nH]nnc4c3)CC2)CC1 [Compound 96, 4-[1-(1H-Benzotriazole-5-carbonyl)-piperidin-4-yl]-piperazine-1-carboxylic acid 3-chloro-4-trifluoromethyl-benzyl ester]
< 1000 | O=C(OCc1cc(Cl)c(F)c(Cl)c1)N1CCN(C2CCN(C(=O)c3ccc4[nH]nnc4c3)CC2)CC1 [Compound 97, 4-[1-(1H-Benzotriazole-5-carbonyl)-piperidin-4-yl]-piperazine-1-carboxylic acid 3,5-dichloro-4-fluoro-benzyl ester]
< 1000 | Cc1c(Br)cc(COC(=O)N2CCN(C3CCN(C(=O)c4ccc5[nH]nnc5c4)CC3)CC2)cc1Br [Compound 98, 4-[1-(1H-Benzotriazole-5-carbonyl)-piperidin-4-yl]-piperazine-1-carboxylic acid 3,5-dibromo-4-methyl-benzyl ester]
< 1000 | O=C(OCc1cc(Cl)cc(C(F)(F)F)c1F)N1CCN(C2CCN(C(=O)c3ccc4[nH]nnc4c3)CC2)CC1 [Compound 99, 4-[1-(1H-Benzotriazole-5-carbonyl)-piperidin-4-yl]-piperazine-1-carboxylic acid 5-chloro-2-fluoro-3-trifluoromethyl-benzyl ester]
< 1000 | O=C(OCc1ccc(F)c(C(F)(F)F)c1)N1CCN(C2CCN(C(=O)c3ccc4[nH]nnc4c3)CC2)CC1 [Compound 100, 4-[1-(1H-Benzotriazole-5-carbonyl)-piperidin-4-yl]-piperazine-1-carboxylic acid 4-fluoro-3-trifluoromethyl-benzyl ester]
< 1000 | O=C(OCc1ccc(OC(F)(F)F)c(Cl)c1)N1CCN(C2CCN(C(=O)c3ccc4[nH]nnc4c3)CC2)CC1 [Compound 101, 4-[1-(1H-Benzotriazole-5-carbonyl)-piperidin-4-yl]-piperazine-1-carboxylic acid 3-chloro-4-trifluoromethoxy-benzyl ester]
< 10000 | O=C(CCc1cc(Cl)c(F)c(Cl)c1)N1CCN(C2CCN(C(=O)c3ccc4[nH]nnc4c3)CC2)CC1 [Compound 104, 1-{4-[1-(1H-Benzotriazole-5-carbonyl)-piperidin-4-yl]-piperazin-1-yl}-3-(3,5-dichloro-4-fluoro-phenyl)-propan-1-one]
< 1000 | O=C(CCc1ccc(C(F)(F)F)c(F)c1)N1CCN(C2CCN(C(=O)c3ccc4[nH]nnc4c3)CC2)CC1 [Compound 105, 1-{4-[1-(1H-Benzotriazole-5-carbonyl)-piperidin-4-yl]-piperazin-1-yl}-3-(3-fluoro-4-trifluoromethyl-phenyl)-propan-1-one]
< 10000 | Cc1cc(CCC(=O)N2CCN(C3CCN(C(=O)c4ccc5[nH]nnc5c4)CC3)CC2)cc(C)c1F [Compound 106, 1-{4-[1-(1H-Benzotriazole-5-carbonyl)-piperidin-4-yl]-piperazin-1-yl}-3-(4-fluoro-3,5-dimethyl-phenyl)-propan-1-one]
< 10000 | O=C(OCc1ccc(C(F)(F)F)cc1)N1CCC(N2CCC(c3ccc4[nH]c(=O)oc4c3)=N2)CC1 [Compound 107, 4-[3-(2-Oxo-2,3-dihydro-benzooxazol-6-yl)-4,5-dihydro-pyrazol-1-yl]-piperidine-1-carboxylic acid 4-trifluoromethyl-benzyl ester]
< 10000 | O=C(OCc1ccc(C(F)(F)F)cc1)N1CCC(n2ccc(-c3ccc4[nH]c(=O)oc4c3)n2)CC1 [Compound 108]
< 10000 | O=C(OCc1ccc(C(F)(F)F)cc1)N1CCN(CC2CCN(C(=O)c3ccc4[nH]nnc4c3)CC2)CC1 [Compound 109, 4-[1-(1H-Benzotriazole-5-carbonyl)-piperidin-4-ylmethyl]-piperazine-1-carboxylic acid 4-trifluoromethyl-benzyl ester]
< 30000 | O=C(Nc1ccc(N2CCN(C(=O)OCc3ccc(C(F)(F)F)cc3)CC2)nc1)c1ccc2[nH]nnc2c1 [Compound 110, 4-{5-[(1H-Benzotriazole-5-carbonyl)-amino]-pyridin-2-yl}-piperazine-1-carboxylic acid 4-trifluoromethyl-benzyl ester]
< 10000 | O=C(Nc1ccc2[nH]nnc2c1)c1ccc(N2CCN(C(=O)OCc3ccc(C(F)(F)F)cc3)CC2)nc1 [Compound 111, 4-[5-(1H-Benzotriazol-5-ylcarbamoyl)-pyridin-2-yl]-piperazine-1-carboxylic acid 4-trifluoromethyl-benzyl ester]
< 10000 | Nc1n[nH]c2ccc(C(=O)N3CCN(C4CCN(C(=O)OCc5ccc(C(F)(F)F)cc5)CC4)CC3)cc12 [Compound 112, 4-[4-(3-Amino-1H-indazole-5-carbonyl)-piperazin-1-yl]-piperidine-1-carboxylic acid 4-trifluoromethyl-benzyl ester]

Structure (SMILES) | IC50 [nM]
O=C(Cc1ccc(C(F)(F)F)cc1F)N1CCN(C2CCN(C(=O)c3ccc4[nH]nnc4c3)CC2)CC1 [Compound 103, 1-{4-[1-(1H-Benzotriazole-5-carbonyl)-piperidin-4-yl]-piperazin-1-yl}-2-(2-fluoro-4-trifluoromethyl-phenyl)-ethanone] | < 30000
